Counter-ions that a name gives are not always drawn. Like-named read-outs stand apart in the source and are kept apart here.
How the values were obtained:
[1] = tested on: PDE IV isolated and purified from guinea pig eosinophils; test: PDE IV inhibitory activity test; assay type: biochemical; settings: hydrolysis of cAMP by enzyme preparation from guinea pig eosinophils; read-out: 50% Inhibitory Concentration
Protocol: The PDE IV inhibitory activity test was carried out according to a method using cosinophils prepared from the abdomen of guinea pig (Souness, J. E. et al., Biochem. Pharmacol. vol. 42, p. 937 (1991)). That is, a homogenizing buffer (10 ml, components: 20 mM Tris-HCl buffer (pH 7.5); 2 mM magnesium chloride; 1 mM dithiothreitol, 5 mM ethylenediamine tetraacetate disodium; 250 mM sucrose; 20 μM p-tosyl-l-lysine-chloromethylketone; 10 μg/ml Leupeptine) was added to 5×10^7 cells, and the mixture was centrifuged. To the residue was added a solubilizing buffer (10 ml, sodium deoxycholate (final concentration: 0.5%) and sodium chloride (final concentration: 100 mM) were added to the above homogenizing buffer), and the mixture was centrifuged again. The supernatant was subjected to ultrafiltration using Molcut-II (manufactured by Japan Millipore Limited), and the fraction on the membrane was collected by adding a homogenizing buffer (10 ml) to give an enzyme preparation. Inhibitory activity against the enzyme was determined by comparing the hydrolysis rates of a substrate, cAMP (manufactured by Nacalai Tesque Inc.), by the above enzyme fraction between in the test compound-treated group and the vehicle group.

[2] = tested on: bronchoconstriction of guinea pig induced by the antigen; test: Inhibitory effect on antigen-induced bronchoconstriction (Konzett-Roessler method); assay type: in vivo; settings: sensitized guinea pigs; for inhibition in vivo at 10 mg/kg / inhibition in vivo at 3 mg/kg / inhibition in vivo at 30 mg/kg: Cavia porcellus, po, read-out: Inhibitory Rate; for inhibition in vivo at 3 mg/kg: 3 mg/kg orally; for inhibition in vivo at 30 mg/kg: 30 mg/kg orally
Protocol: Hartley male guinea pigs were actively sensitized by intraperitoneally administering an ovalbumin (manufacture by Sigma). Four weeks thereafter, the animals were anesthetized with Nembutal (50 mg/kg, i.p., manufactured by Dainabot Co., Ltd.), and a cannual was inserted at the airway, and the bronchoconstriction response of the animals under artificial respiration was observed. The response of the airway was measured by Konzett-Roessler method (Naunyn-Schmiedebergs, Aech. Exp. Pathol. Pharmacol., vol. 195, p. 71 (1940)). A test compound (the compounds of Examples of the present invention as listed in Table 3) was orally administered to the animals one hour prior to the administration of the antigen (i.e., ovalbumin, 0.05%/physiological saline solution, i.v.). Only the compound of Example 31 was orally administered 2 hours prior to the administration of the antigene. The inhibitory rate (%) caused by the test compound was calculated by comparing the bronchoconstriction response of the test compound-treated group with that of the control group to which only a solvent was administered.

acute toxicity test = assay type: in vivo; settings: dose of 2000 mg/kg
Source text: Besides, the present compounds (I) of the present invention are low toxic.

[3] = 1 h, 10 mg/kg orally, one hour prior to antigen (ovalbumin i.v.)
[4] = 2 hours prior to antigen (ovalbumin i.v.)
[5] = 1 h, one hour prior to antigen (ovalbumin i.v.)

| SMILES | IC50 [1] [nM] | inhibition in vivo at 10 mg/kg [2, 3] [%] | also measured |
| --- | --- | --- | --- |
| COc1ccc(C2CNC(=O)C2)cc1OC1CCCC1 (stereo not shown) [Rolipram, reference compound] | 28.4 |  |  |
| Oc1cnccc1CCCOc1cccnc1Nc1cccc(Br)c1 [Example 46, 2-(3-bromoanilino)-3-[3-(3-hydroxypyridin-4-yl)propoxy]-pyridine] |  | 45.7 |  |
| Oc1cnccc1CCCOc1cccnc1Oc1cccc(Cl)c1 [Example 31, 2-(3-chlorophenoxy)-3-[3-(3-hydroxypyridin-4-yl)-propoxy]pyridine] | 15.7 |  | inhibition in vivo at 3 mg/kg [2, 4]: 39%; inhibition in vivo at 10 mg/kg ([2]; 10 mg/kg orally, 2 hours prior to antigen (ovalbumin i.v.)): 66%; inhibition in vivo at 30 mg/kg [2, 4]: 69%; toxicity in acute toxicity test (acute toxicity test): never showed any toxicity |
| CC(=O)Oc1cnccc1CCCOc1cccnc1Oc1cccc(Cl)c1 [Example 54, 2-(3-chlorophenoxy)-3-[3-(3-acetoxypyridin-4-yl)propoxy]-pyridine.monofumarate] | 63.3 | 33 |  |
| CS(=O)(=O)Nc1cnccc1CCCOc1cccnc1Oc1cccc(Cl)c1 [Example 70, 2-(3-chlorophenoxy)-3-[3-(3-methylsulfonylaminopyridin-4-yl)propoxy]pyridine] | 150 |  |  |
| Oc1cncc(Cl)c1CCCOc1cccnc1Oc1cccc(Cl)c1 [Example 73, 2-(3-chlorophenoxy)-3-[3-(3-chloro-5-hydroxypyridin-4-yl)propoxy]pyridine] | 200 |  |  |
| COC(=O)c1cccc(Oc2ncccc2OCCCc2ccncc2)c1 [Example 53, 2-(3-methoxycarbonylphenoxy)-3-[3-(pyridin-4-yl)-propoxy]pyridine] | 23.4 |  |  |
| CC(=O)Oc1cnccc1CCCOc1cccnc1Cc1cccc(Br)c1 [Example 57, 2-(3-bromobenzyl)-3-[3-(3-acetoxypyridin-4-yl)propoxy]-pyridine.1.5 fumarate] | 22.9 |  |  |
| Oc1cnccc1CCCOc1cccnc1Oc1ccccc1 [Example 30, 2-phenoxy-3-[3-(3-hydroxypyridin-4-yl)propoxy]pyridine] | 11 | 46.5 |  |
| c1ccc(Sc2ncccc2OCCCc2ccncc2)cc1 [Example 15] | 9.7 |  | melting point: 41 to 43 °C |
| CCOC(=O)c1cccc(Oc2ncccc2OCCCc2ccncc2O)c1.CCOC(=O)c1cccc(Oc2ncccc2OCCCc2ccncc2O)c1.O=C(O)/C=C/C(=O)O [Example 29, 2-(3-ethoxycarbonylphenoxy)-3-[3-(3-hydroxypyridin-4-yl)propoxy]pyridine.0.5 fumarate] |  |  | Inhibitory Rate ([2]; 10 mg/kg orally, one hour prior to antigen (ovalbumin i.v.)): 42% |
| COc1ccc(C(=O)Nc2c(Cl)cncc2Cl)cc1OC1CCCC1 [RP-73401, reference compound] | 0.18 |  |  |
| Brc1cccc(Sc2ncccc2OCCCc2cccnc2)c1 [Example 3, 2-(3-bromophenylthio)-3-[3-(pyridin-3-yl)propoxy]-pyridine] | 35.6 | 59.9 |  |
| Brc1cccc(Oc2ncccc2OCCCc2ccncc2)c1 [Example 35, 2-(3-bromophenoxy)-3-[3-(pyridin-4-yl)propoxy]pyridine] | 25.8 | 49.3 |  |
| Oc1cnccc1CCCOc1cccnc1Sc1cccc(Br)c1 [Example 26, 2-(3-bromophenylthio)-3-[3-(3-hydroxypyridin-4-yl)-propoxy]pyridine] |  | 48.3 |  |
| COc1cccc(Sc2ncccc2OCCCc2ccncc2)c1 [Example 14] | 15.3 |  | melting point: 84 to 85 °C |
| Nc1cncc(O)c1CCCOc1cccnc1Oc1cccc(Cl)c1 [Example 69, 2-(3-chlorophenoxy)-3-[3-(3-amino-5-hydroxypyridin-4-yl)propoxy]pyridine.1.0 fumarate] | 41.2 |  |  |
| Oc1cncc(CCCOc2cccnc2Oc2cccc(Cl)c2)c1 [Example 65, 2-(3-chlorophenoxy)-3-[3-(5-hydroxypyridin-3-yl)-propoxy]pyridine] | 85.6 |  |  |
| Oc1cnccc1CCCOc1cccnc1Oc1cccc(Br)c1 [Example 32, 2-(3-bromophenoxy)-3-[3-(3-hydroxypyridin-4-yl)-propoxy]pyridine] | 14.2 | 70 | inhibition in vivo at 3 mg/kg [2, 5]: 34%; inhibition in vivo at 30 mg/kg [2, 5]: 72% |
| Brc1cccc(Oc2ncccc2OCCCc2cccnc2)c1 [Example 40] | 18.3 | 45.3 | melting point: 46 to 48 °C |
| N#Cc1cccc(Oc2ncccc2OCCCc2ccncc2O)c1 [Example 28, 2-(3-cyanophenoxy)-3-[3-(3-hydroxypyridin-4-yl)-propoxy]pyridine] |  | 54 |  |
| Fc1cccc(Oc2ncccc2OCCCc2ccncc2)c1 [Example 39, 2-(3-fluorophenoxy)-3-[3-(pyridin-4-yl)propoxy]pyridine] | 20.5 | 66.3 | melting point: 117 to 118 °C |
| Brc1cccc(Sc2ncccc2OCCCc2ccncc2)c1 [Example 7, 2-(3-bromophenylthio)-3-[3-(pyridin-4-yl)propoxy]pyridine] | 33.7 | 77.2 | melting point: 89 to 90 °C |
| Oc1cccc(Sc2ncccc2OCCCc2ccncc2)c1 [Example 13, 2-(3-hydroxyphenylthio)-3-[3-(pyridin-4-yl)propoxy]pyridine] |  |  | melting point: 158 to 159 °C |
| COc1ccc([C@]2(C#N)CC[C@@H](C(=O)O)CC2)cc1OC1CCCC1 [SB-207499, reference compound] | 11 |  |  |
| Oc1cnccc1CCCOc1cccnc1Oc1cccc(F)c1 [Example 44, 2-(3-fluorophenoxy)-3-[3-(3-hydroxypyridin-4-yl)-propoxy]pyridine] | 34.6 | 55 |  |
| N#Cc1cccc(Oc2ncccc2OCCCc2ccncc2)c1 [Example 41, 2-(3-Cyanophenoxy)-3-[3-(pyridin-4-yl)propoxy]pyridine] | 38.6 |  | melting point: 112 to 113 °C |
| c1ccc(Oc2ncccc2OCCCc2ccncc2)cc1 [Example 37, 2-phenoxy-3-[3-(pyridin-4-yl)propoxy]pyridine] | 26.8 | 49.6 | melting point: 97 to 98 °C |
| CC(=O)Oc1cnccc1CCCOc1cccnc1Oc1ccccc1 [Example 56, 2-phenoxy-3-[3-(3-acetoxypyridin-4-yl)propoxy]pyridine] | 5.6 |  |  |
